Results: patent publication US20090123581A1, “COLLAGEN CROSS-LINKING AGENTS ON DENTAL RESTORATIVE TREATMENT AND PREVENTIVE DENTISTRY” (THE BOARD OF TRUSTEES OF THE UNIVERSITY OF ILLINOIS, priority 2006, published 2009)

Tests used:
[1] = Ultimate tensile strength (UTS) of demineralized dentin after cross-linker treatment (Example 1); set-up: species or system human; conditions: for Ultimate tensile strength, mean: pH 7.4
From the text: (§1) Fixation Processes: Ten sound freshly extracted human molars were used in this study. The teeth were thawed, cleaned of adhering soft tissues, and the occlusal surfaces were ground flat with #320 grit Silicon Carbide paper under running water to remove part of the enamel. Flattening of the occlusal surface by removal of the cusps enables accurate sectioning of samples in beam shape. Teeth were sectioned into 0.5±0.1 by 0.5±0.1 mm thick beams (n=20 beams per tooth) with a slow speed diamond wafering blade (Buehler-Series 15LC Diamond, Lake Bluff, Ill., USA) under constant water coolant (FIG. 1A).
(§2) The slabs were randomly divided into two groups: 1) undemineralized dentin and 2) demineralized dentin (FIG. 1A). In Group 2, dentin beams were immersed in 10% phosphoric acid solution (Fisher Scientific, New Jersey, N.J.) for a period of 5 hours. X-rays were taken from the specimens to verify complete tissue demineralization. Specimens were thoroughly rinsed with distilled water for 10 minutes to remove any residue of the phosphoric acid.
(§3) Specimens from groups 1 and 2 were subdivided according to the dentin treatment (FIG. 1B). In Treatment A, specimens were immersed in PBS solution (pH: 7.4) as a control. In Treatment B, specimens were immersed in 0.5% Proanthocyanidin (MegaNatural—Polyphenolics Ind.) PBS solution (PA) at a pH of 7.4. In Treatment C, specimens were immersed in 0.625% Genipin (Wako Pure Chemical Ind.) PBS solution (GE) at a pH of 7.4. In Treatment D, specimens were immersed in 5% glutaraldehyde solution (GD) (Fisher Scientific, New Jersey, N.J.) at a pH of 7.4. Specimens were kept in their respective solutions for 4 and 40 hours at room temperature. After the incubation periods, specimens were thoroughly rinsed with distilled and deionized water to remove any remains of cross-linking agents and buffer.
(§4) UTS testing: For UTS evaluation, the specimens were glued with a cyanoacrylate adhesive (Zapit—Dental Ventures of America Inc., Corona, Calif.) to a Ciucchi's jig, which was mounted on a universal testing machine (EZ Test, Shimazu Co., Kyoto, Japan) and subjected to microtensile testing at a crosshead speed of 1 mm/min (FIG. 1C). Means and standard deviations were calculated and expressed in microtensile bond strengths (MPa). Statistical analysis was performed using a two-way ANOVA and Fisher's PLSD tests (p<0.05).

[2] = Ultimate tensile strength (UTS) of undemineralized (mineralized) dentin after cross-linker treatment (Example 1); set-up: species or system human; conditions: 0.625% GE or 5% GD; for Ultimate tensile strength, mean: pH 7.4
From the text: as §1, §2, §3, §4

COC(=O)C1=CO[C@@H](O)[C@@H]2C(CO)=CC[C@H]12 [GE, genipin]
Ultimate tensile strength, mean ([1]; 4 hours in 0.5% PA, 0.625% GE or 5% GD): 11.0 MPa
Ultimate tensile strength, mean ([1]; 40 hours in 0.5% PA, 0.625% GE or 5% GD): 18.2 MPa
increase in the UTS values ([1]; 40 hours treatment, versus control): approximately 80%
Ultimate tensile strength, pooled data ([1]; pooled over 4 and 40 hours, 0.5% PA, 0.625% GE or 5% GD): 14.6 B MPa
UTS values compared to the control group (statistics) ([1]; two-way ANOVA, Fisher's PLSD): statistically significant increase
Ultimate tensile strength, mean ([2]; 4 hours in 0.5% PA): 84.2 MPa
Ultimate tensile strength, mean ([2]; 40 hours in 0.5% PA): 94.2 MPa
Ultimate tensile strength, pooled data ([2]; pooled over 4 and 40 hours, 0.5% PA): 89.2 A MPa
